“Also recorded” adds a separate entry of the source.
Key:
[1] = Toxicity profile, body weight in Ba/F3 splenomegaly model; assay type: in vivo; set-up: Delta Body Weight Loss: unit not given here; settings: for observed toxicity (in words): 10 mg/kg over 7 days of dosing; for Delta Body Weight Loss: 10 mg/kg oral QD
Text: The […] cell line, Ba/F3, depends on the addition of IL-3 for growth in cell culture. However Ba/F3 cells engineered to express a full length oncogene is capable of rendering Ba/F3 cells factor-independent, but become apoptotic when the oncogene or downstream signaling is inhibited by the addition of small molecule inhibitors. When injected into the tail veins of nude mice, the factor-independent Ba/F3 cells home to the spleen and proliferate to cause a marked splenomegaly. The in vivo proliferation of the factor-independent Ba/F3 cells and appearance of splenomegaly are directly dependent on the activity of the Ba/F3 cells and can be blocked by oral administration of compounds that are effective inhibitors of cell growth. Therefore, this animal model can be used to ascertain the effective doses for Ba/F3 cell inhibition, evaluation of both PK/PD effects as well as a readout of toxicity or MTD.
FIG. 2 illustrates the observed toxicity when dosing Compound P-001 and Compound Z at 10 mg/kg to nu/nu mice over a period of 7 days.

IPC298 Xenograft = assay: IPC298 xenograft model, tumor growth; assay type: in vivo, mice; settings: for antitumor activity (in words): 10 mg/kg po QD x16; for Average Tumor Volume (mm^3) / Tumor Size (Day 27, mm^3) / TGI (%): 10 mg/kg po QD; for TGI (%): tumor growth inhibition
Experimental: Treatment: The treatments started on Day 11 after tumor inoculation when the mean tumor size reached approximately 150 mm^3. Mice were randomized into 10 study groups and each group consisted of 8 mice. The test articles were administrated to the tumor-bearing mice according to predetermined treatment regimen as shown in Table 3.
Tumor measurements and the endpoints: The major endpoint was to see if the tumor growth could be delayed or regressed. Tumor size was measured twice a week in two dimensions using a caliper, and the volume was expressed in mm^3 using the formula: V=0.5a×b^2 where a and b are the long and short diameters of the tumor, respectively. The tumor size was then used for calculation of tumor growth inhibition (TGI, in percent). The TGI value is an indication of antitumor effectiveness: TGI=(1−T/C)×100%. T and C are the means of relative tumor volumes of the treated and control groups, respectively. T and C are calculated using the formula: T=Td/T0×100%, C=Cd/C0×100%, where Td and Cd are tumor volumes of the treated and control animals, respectively, on Day 28 after tumor inoculation; T0 and C0 are tumor volumes of the treated and control animals, respectively, at the start of the treatment

[2] = Rat PK, cassette dosing, IV and PO; assay type: in vivo; settings: for Cl (mL/min/Kg) / Vss (L/Kg) / AUC / Cmax / Tmax / half-life: Mean (SE); for AUC / Cmax / Tmax / half-life / bioavailability: plasma
Experimental: Rat PK data was determined using a cassette dosing format with 5 compounds administered to each of three rats for IV and three rats for PO. The IV dose was 1 mg/kg for each compound in 8.75% solutol, 8.75% ethanol, 12.5% DMSO and 70% water by volume. The PO dose was 2 mg/kg for each compound in 1% methylcellulose in water, 10% DMSO by volume. Plasma IV samples were collected at 15 min, 30 min, 1 hr, 2 hrs, 4 hrs, 8 hrs, and 24 hrs. Plasma PO samples were collected at 30 min, 1 hr, 2 hrs, 4 hrs, 8 hrs, and 24 hrs. Plasma drug concentrations were determined by LC/MS/MS after standard curve calibration for each test article. Dosing solutions were also analyzed for test article and used to calculate the administered dose. The PK parameters were calculated using WinNonLin (v 6.3, Phoenix 64, Pharsight) using a noncompartmental model.
Tables 1 and 2 show comparative data for both intravenous (IV) and peroral (PO) administration in rat for Compound P-001 of this disclosure and a similar structural compound disclosed in the WO 2014/145051, Compound Z. Values are reported as the Mean with the Standard Error (SE) in parentheses.

[3] = Table 2, titled Peroral (PO) Administration in Rat
[4] = 1 mg/kg, Table 1, titled Intravenous (IV) Administration in Rat
[5] = 2 mg/kg, Table 2, titled Peroral (PO) Administration in Rat

SMILES	observed toxicity (in words) [1]	Delta Body Weight Loss ([1]; Day 1)	Delta Body Weight Loss ([1]; Day 2)	Delta Body Weight Loss ([1]; Day 3)	Delta Body Weight Loss ([1]; Day 5)	Delta Body Weight Loss ([1]; Day 6)	Delta Body Weight Loss ([1]; Day 7)	antitumor activity (in words) (IPC298 Xenograft)	Average Tumor Volume (mm^3) (IPC298 Xenograft; Day 0)	Average Tumor Volume (mm^3) (IPC298 Xenograft; Day 4)	Average Tumor Volume (mm^3) (IPC298 Xenograft; Day 6)	Average Tumor Volume (mm^3) (IPC298 Xenograft; Day 8)	Average Tumor Volume (mm^3) (IPC298 Xenograft; Day 11)	Average Tumor Volume (mm^3) (IPC298 Xenograft; Day 13)	Tumor Size (Day 27, mm^3) (IPC298 Xenograft) [mm^3]	TGI (%) (IPC298 Xenograft)	Cl (mL/min/Kg) [2, 3]	Vss (L/Kg) [2, 3]	AUC [2, 4] [ng·h/mL]	Cmax [2, 4] [ng/mL]	other results
Cc1noc(C)c1-c1cnc2c(-c3ccc(C(=O)O)cc3)cn(C(C)(c3ccccn3)c3ccccn3)c2c1 [Compound P-001, 4-(1-(1,1-di(pyridin-2-yl)ethyl)-6-(3,5-dimethylisoxazol-4-yl)-1H-pyrrolo[3,2-b]pyridin-3-yl)benzoic acid]	no toxicity was observed	0	0.75	1.375	1.125	1.825	2.075	strong antitumor activity; also recorded: strong therapeutic efficacy	124.7	94.5	91.5	90.0	96.9	99.2	99.2 ± 13.5	112	3 (0) mL/min/Kg	0.469 (0.015) L/Kg	7670	1210	rat PK compared to Compound Z (in words) ([2]; IV and PO): dramatic improvement; Tmax [2, 4]: 40.2 min; half-life [2, 4]: 248 min; AUC [2, 5]: 7670 ng·h/mL; bioavailability [2, 5]: 103%
Cc1noc(C)c1-c1cnc2c(-c3ccc(C(=O)O)cc3)cn(C(c3ccccn3)c3ccccn3)c2c1 [Compound Z, reference compound]	significant toxicity after the 2nd day of dosing	0	−0.125	−0.6	−1.125	−2.475	−3.75	moderate antitumor activity	124.0	119.8	124.0	120.6	106.8	141.5	141.5 ± 16.3	92	36 (4) mL/min/Kg	1.061 (0.109) L/Kg	125	80	Tmax [2, 4]: 30 min; half-life [2, 4]: 78.6 min; AUC [2, 5]: 125 ng·h/mL; bioavailability [2, 5]: 17%
